Assay [1] has as its target Endothelial PAS domain-containing protein 1 (Homo sapiens) (UniProt Q99814). Nature of the assay: potency against HIF reporters across cell lines – luminescence, panel, selectivity assay for HIF-2a inhibitor project, dose response (AID 651581). Particulars: human cell HIF reporter.
The target in assay [2] is Hypoxia-inducible factor 1-alpha (Homo sapiens) (UniProt Q16665). Described as above. The settings on record: human cell HIF reporter, HIF-1a.

pIC50: −log10 of the molar value. Activity calls are given as the source filed them. The rule behind the calls is not given here. A value given as a limit tells only on which side of the number the result lay.

Hypoxia-inducible factor 1-alpha (Homo sapiens), sequence (Q16665 whole entry, looked up): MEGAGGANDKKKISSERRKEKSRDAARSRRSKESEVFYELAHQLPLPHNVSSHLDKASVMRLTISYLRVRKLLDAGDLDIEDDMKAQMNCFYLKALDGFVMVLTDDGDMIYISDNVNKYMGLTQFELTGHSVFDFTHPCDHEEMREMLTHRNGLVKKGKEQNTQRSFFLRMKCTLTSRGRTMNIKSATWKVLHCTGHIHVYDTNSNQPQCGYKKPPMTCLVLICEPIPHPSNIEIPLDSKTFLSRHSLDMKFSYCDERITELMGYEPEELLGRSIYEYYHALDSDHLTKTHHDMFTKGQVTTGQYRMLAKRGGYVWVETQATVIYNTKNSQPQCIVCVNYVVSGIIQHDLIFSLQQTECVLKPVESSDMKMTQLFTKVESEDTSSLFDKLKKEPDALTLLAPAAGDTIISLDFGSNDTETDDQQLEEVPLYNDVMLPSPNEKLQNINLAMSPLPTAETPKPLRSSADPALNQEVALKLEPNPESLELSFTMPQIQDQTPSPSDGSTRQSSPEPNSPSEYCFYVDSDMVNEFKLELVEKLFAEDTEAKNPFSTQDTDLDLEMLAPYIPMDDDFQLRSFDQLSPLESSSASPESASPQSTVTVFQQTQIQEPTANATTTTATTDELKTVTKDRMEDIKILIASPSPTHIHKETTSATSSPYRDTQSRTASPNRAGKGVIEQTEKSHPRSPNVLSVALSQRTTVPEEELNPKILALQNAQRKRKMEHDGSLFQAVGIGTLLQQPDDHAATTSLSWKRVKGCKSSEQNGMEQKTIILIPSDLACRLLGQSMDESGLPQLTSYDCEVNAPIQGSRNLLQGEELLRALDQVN

As usually defined, the pIC50 is the negative decadic logarithm of the IC50, by convention in mol/L. The IC50 is the concentration that inhibits the measured activity by half. Turning to `COc1ccc(OCc2cccc(C(=O)Nc3cc(C)on3)c2)cc1`, the pIC50 is less than 4.00 in assay [1] (HIF-2a PANC, run 1); greater than 4.52 in assay [1] (HIF-2a PANC, run 2); greater than 4.52 in assay [1] (HIF-2a, run 1); greater than 4.52 in assay [1] (HIF-2a, run 2); less than 4.00 in assay [2] (run 1); less than 4.00 in assay [2] (run 2). Also, the IC50 in assay [1] (HIF-2a, mean of runs) was < 30 µM (inactive).
For `Cn1ncc2c(O/N=C(\N)c3ccc(C(C)(C)C)cc3)ncnc21`, the pIC50 in assay [1] (HIF-2a PANC, run 1) is greater than 4.52; in assay [1] (HIF-2a PANC, run 2), 4.34; in assay [1] (HIF-2a, mean of runs), 5.38; in assay [1] (HIF-2a, run 1), 5.37; in assay [1] (HIF-2a, run 2) it was 5.39; in assay [2] (run 1), less than 4.00. For the same compound, the pIC50 in assay [2] (run 2) was 4.32.
On to `Cc1cc(C)c(C)c(S(=O)(=O)ON2C(=O)c3ccccc3C2=O)c1C`, for which the IC50 result in assay [1] (HIF-2a PANC, mean of runs) was “inactive”. The negative logarithm of the IC50 (pIC50) in assay [1] (HIF-2a PANC, run 1) was 4.29; in assay [1] (HIF-2a PANC, run 2), 4.66; in assay [1] (HIF-2a, mean of runs) it was 5.06; in assay [1] (HIF-2a, run 1), 5.05; in assay [1] (HIF-2a, run 2), 5.07; in assay [2] (run 1) it was less than 4.00. Moreover, in assay [2] (run 2), the pIC50 was less than 4.00.
As for `Cc1csc(NC(=O)CCc2c(C)nc3cc(-c4ccc(Cl)cc4)nn3c2C)n1`, the pIC50 is greater than 6.72 in assay [1] (HIF-2a PANC, run 1); 6.51 in assay [1] (HIF-2a PANC, run 2); greater than 6.00 in assay [1] (HIF-2a, run 1); 6.46 in assay [1] (HIF-2a, run 2); 6.31 in assay [2] (run 1); greater than 5.00 in assay [2] (run 2).
`COc1ccc(CNC(=O)c2nc(S(=O)(=O)Cc3ccccc3)ncc2Cl)cc1`: in assay [1] (HIF-2a PANC, mean of runs), the IC50 entry is “inactive”. The pIC50 in assay [1] (HIF-2a PANC, run 1) is 4.53; in assay [1] (HIF-2a PANC, run 2), 4.51; in assay [1] (HIF-2a, mean of runs), 5.05; in assay [1] (HIF-2a, run 1), 5.06; in assay [1] (HIF-2a, run 2) it was 5.05; in assay [2] (mean of runs), 4.57. Further, the pIC50 in assay [2] (run 1) was 4.55; in assay [2] (run 2) it was 4.58.
`CCOc1ccc(OCc2cccc(C(=O)N3CCOCC3)c2)cc1`: the IC50 in assay [1] (HIF-2a PANC, mean of runs) is > 99 µM (inactive). In addition, the pIC50 in assay [1] (HIF-2a PANC, run 1) was less than 4.00; in assay [1] (HIF-2a PANC, run 2), less than 4.00; in assay [1] (HIF-2a, run 1) it was 5.12; in assay [1] (HIF-2a, run 2), greater than 4.52; in assay [2] (run 1) it was less than 4.00; in assay [2] (run 2), less than 4.00.
With `COC(=O)COc1ccc(-c2nccc(-c3ccc(Br)cc3)n2)cc1`, the pIC50 in assay [1] (HIF-2a PANC, run 1) was 5.20; in assay [1] (HIF-2a PANC, run 2) it was less than 4.00; in assay [1] (HIF-2a, mean of runs) it was 5.12; in assay [1] (HIF-2a, run 1), 5.12; in assay [1] (HIF-2a, run 2), 5.13; in assay [2] (run 1) it was less than 4.00. This compound also gave a pIC50 in assay [2] (run 2) of less than 4.00.
Take `COc1ccc(-n2nc3ccc(N)cc3n2)cc1`: the pIC50 in assay [1] (HIF-2a PANC, mean of runs) is 5.65; in assay [1] (HIF-2a PANC, run 1), 5.49; in assay [1] (HIF-2a PANC, run 2) it was 5.89; in assay [1] (HIF-2a, run 1) it was 5.13; in assay [1] (HIF-2a, run 2), 4.83; in assay [2] (mean of runs), 4.36. Further, the pIC50 in assay [2] (run 1) was 4.60; in assay [2] (run 2) it was 4.21. Also, the IC50 entry in assay [1] (HIF-2a, mean of runs) is “inactive”.
Turning to `Cc1nn(-c2ccccc2)c(Cl)c1/C=N/Nc1ccc(Cl)c(C(=O)O)c1`, the pIC50 in assay [1] (HIF-2a PANC, run 1) was less than 4.00; in assay [1] (HIF-2a PANC, run 2) it was less than 4.00; in assay [1] (HIF-2a, run 1), greater than 4.52; in assay [1] (HIF-2a, run 2), less than 4.00; in assay [2] (run 1), less than 4.00; in assay [2] (run 2), less than 4.00. Also, the IC50 in assay [2] (mean of runs) was > 99 µM (inactive).
Take `CC(=O)Nc1ccc(OS(=O)(=O)c2c(C)cc(C)cc2C)cc1`: the IC50 in assay [1] (HIF-2a PANC, mean of runs) is > 99 µM (inactive). Moreover, the negative logarithm of the IC50 (pIC50) in assay [1] (HIF-2a PANC, run 1) is less than 4.00; in assay [1] (HIF-2a PANC, run 2), less than 4.00; in assay [1] (HIF-2a, run 1), 4.90; in assay [1] (HIF-2a, run 2) it was 4.96; in assay [2] (mean of runs), 4.19; in assay [2] (run 1), 4.10. The pIC50 in assay [2] (run 2) is 4.31. The IC50 result in assay [1] (HIF-2a, mean of runs) was “inactive”.
`COC(=O)CSc1nnc(-c2sc3ccccc3c2Cl)o1`: the negative logarithm of the IC50 (pIC50) was 5.30 in assay [1] (HIF-2a PANC, mean of runs); 5.36 in assay [1] (HIF-2a PANC, run 1); 5.25 in assay [1] (HIF-2a PANC, run 2); 5.63 in assay [1] (HIF-2a, mean of runs); 5.68 in assay [1] (HIF-2a, run 1); 5.58 in assay [1] (HIF-2a, run 2). For the same compound, the pIC50 in assay [2] (run 1) is 5.64; in assay [2] (run 2), 5.60. For the same compound, in assay [2] (mean of runs), the IC50 entry was “inactive”.
Consider `O=C(O)c1cccc(COc2ccccc2Cl)c1`, for which the pIC50 in assay [1] (HIF-2a PANC, run 1) was 4.67; in assay [1] (HIF-2a PANC, run 2) it was less than 4.00; in assay [1] (HIF-2a, mean of runs), 5.59; in assay [1] (HIF-2a, run 1) it was 5.60; in assay [1] (HIF-2a, run 2), 5.58; in assay [2] (mean of runs) it was 4.67. Moreover, the pIC50 was 4.75 in assay [2] (run 1) and 4.61 in assay [2] (run 2).
For `O=C(O)c1cccc(C(=O)Nc2cccc(NC(=O)C3CCCO3)c2)c1` (stereo unspecified), the IC50 in assay [1] (HIF-2a PANC, mean of runs) was > 99 µM (inactive). Moreover, the pIC50 was less than 4.00 in assay [1] (HIF-2a PANC, run 1); less than 4.00 in assay [1] (HIF-2a PANC, run 2); 4.51 in assay [1] (HIF-2a, run 1); 4.57 in assay [1] (HIF-2a, run 2); less than 4.00 in assay [2] (run 1); less than 4.00 in assay [2] (run 2). For the same compound, in assay [1] (HIF-2a, mean of runs), the IC50 entry is “inactive”.

These data come from PubChem BioAssay AID651581 (Sanford-Burnham Center for Chemical Genomics, 2012).
